These results are taken from patent publication US7772252B2, “Heterocyclic substituted carbonyl derivatives and their use as dopamine D3 receptor ligands” (Aventis Pharmaceuticals Inc., priority 2001, dated 2010).

For orientation: Ki means a measure of affinity in units of concentration, obtained from inhibition or displacement.

T1 sequence (P35462 whole entry): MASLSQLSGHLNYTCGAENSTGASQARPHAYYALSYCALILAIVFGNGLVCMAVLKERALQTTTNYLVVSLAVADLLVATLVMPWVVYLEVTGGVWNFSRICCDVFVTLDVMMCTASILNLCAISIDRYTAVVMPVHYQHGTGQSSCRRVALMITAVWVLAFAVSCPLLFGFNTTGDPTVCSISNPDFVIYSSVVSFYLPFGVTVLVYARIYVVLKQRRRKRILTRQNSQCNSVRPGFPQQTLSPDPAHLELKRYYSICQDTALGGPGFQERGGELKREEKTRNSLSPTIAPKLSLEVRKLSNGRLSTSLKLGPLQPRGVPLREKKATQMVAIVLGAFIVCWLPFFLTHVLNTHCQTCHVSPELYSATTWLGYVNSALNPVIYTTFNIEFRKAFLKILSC

This experiment concerns the target T1, cloned human dopamine D3 receptors (Homo sapiens, UniProt P35462).
T1 construct: expressed in transfected cells; membrane homogenate
Nature of the experiment: [N-Methyl-3H]Spiroperidol binding to cloned human dopamine D3 receptors. Particulars: read-out: D3 Ki. In short, it runs like this: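 Stably transfected CHO cells expressing cloned human D3 receptor were used as membranes homogenized in 10% DMSO. Ligand was [N-methyl-3H]spiroperidol displacement.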
In the case of `Cn1nc(C2CCN(C[C@@H]3C[C@H]3C(=O)N3CCC[C@@H](Cn4ccnc4)C3)CC2)c2ccc(C(F)(F)F)cc21` [A002437353, (3S-Imidazol-1-ylmethyl-piperidin-1-yl)-{2R-[4-(1-methyl-6-trifluoromethyl-1H-indazol-3-yl)-piperidin-1-ylmethyl]-1R-cyclopropyl}-methanone], the Ki was determined as 0.937 nM. As to `O=C(Cc1ccccc1)NNC(=O)C1CC1CN1CCC(c2noc3ccsc23)CC1` (racemic) [compound 831452], the Ki worked out at 115 nM. Consider `O=C(NCCCn1cnc2ccccc21)[C@@H]1C[C@H]1CN1CCN(c2nn(-c3ccc(OC(F)(F)F)cc3)c3ccsc23)CC1` [A002243385], for which the Ki came to 661 nM. As for `Cn1nc(C2CCN(C[C@@H]3C[C@H]3C(=O)N[C@H]3CC[C@H](C)CC3)CC2)c2ccc(C(F)(F)F)cc21` [compound 833696], the Ki is 268 nM. For the compound `O=C(NC1CCNCC1)[C@@H]1C[C@H]1CN1CCC(c2noc3ccsc23)CC1` [compound 833383], the Ki was 2.57 nM.

`CCC1CCC(NC(=O)C2CC2CN2CCC(c3ccccc3Cc3ccccc3)CC2)CC1` (racemic) [compound 830132]: the Ki came to 9.26 nM. Turning to `CCC1CCC(NC(=O)C2CC2CN2CCN(C(=O)OC(C)(C)C)CC2)CC1` (racemic) [compound 827223], the Ki was determined as 159 nM. As for `O=C(NCCc1c[nH]c2ccccc12)[C@@H]1C[C@H]1CN1CCN(c2csc3cc(C(F)(F)F)ccc23)CC1` [compound 831271], the Ki came to 6.57 nM. Turning to `O=C(N[C@H]1CC[C@H](O)CC1)[C@@H]1C[C@H]1CN1CCN(c2nn(-c3ccc(F)cc3)c3ccsc23)CC1` [compound 832566], the Ki stood at 1.76 nM. For `O=C([C@@H]1C[C@H]1CN1CCC(c2noc3ccsc23)CC1)N1CCc2ccccc2C1` [compound 831199], the Ki amounted to 2.78 nM. Consider `COc1cccc2c(C3CCN(C[C@@H]4C[C@H]4C(=O)N[C@H]4CC[C@H](C)CC4)CC3)noc12` [compound 831809], for which the Ki was 0.0284 nM. The value for `O=C(C1CC1CN1CCC(c2noc3ccsc23)CC1)N1CCN(CCc2cccs2)CC1` (racemic) [compound 832049] was 6.54 nM; that for `Cn1nc(N2CCN(C[C@@H]3C[C@H]3C(=O)N3CCC(n4ccnc4)CC3)CC2)c2sccc21` [compound 832207] was 54.8 nM; that for `CCCCn1nc(N2CCN(C[C@@H]3C[C@H]3C(=O)NCCCn3ccnc3)CC2)c2sccc21` [A002202401] was 205 nM. Take `O=C(NC1CCN(Cc2ccccc2Cl)CC1)[C@@H]1C[C@H]1CN1CCC(c2noc3ccsc23)CC1` [compound 832730]: the Ki amounted to 3.62 nM.

Turning to `O=C([C@@H]1C[C@H]1CN1CCC(c2noc3ccsc23)CC1)N1CCC(c2ccccc2)CC1` [compound 831193], the Ki amounted to 23.8 nM. For `O=C([C@@H]1C[C@H]1CN1CCC(c2noc3ccsc23)CC1)N1CCN(Cc2ccc(Cl)cc2)CC1` [compound 833128], the Ki worked out at 26.7 nM. For the compound `O=C([C@@H]1C[C@H]1CN1CCN(c2csc3cc(C(F)(F)F)ccc23)CC1)N1CCN(CCO)CC1` [compound 832735], the Ki worked out at 36.8 nM.

On to `CN1CCN(CCCNC(=O)[C@@H]2C[C@H]2CN2CCC(c3noc4c(C(F)(F)F)cccc34)CC2)CC1` [A002438639], for which the Ki turned out to be 97.3 nM. Consider `Cn1nc(C2CCN(C[C@@H]3C[C@H]3C(=O)NCCCc3cccnc3)CC2)c2cccc(C(F)(F)F)c21` [compound 833092], for which the Ki was 33.5 nM. As to `O=C([C@@H]1C[C@H]1CN1CCN(c2nc3cccc4c3n2CCC4)CC1)N1CCC[C@@H](Cn2ccnc2)C1` [A002438663], the Ki was 1.37 nM. Take `COc1ccccc1CCNC(=O)C1CC1CN1CCC(c2noc3ccsc23)CC1` (racemic) [compound 831805]: the inhibition constant (Ki) amounted to 10.2 nM. As for `O=C(NCCc1cccc(C(F)(F)F)c1)C1CC1CN1CCC(c2noc3ccsc23)CC1` (racemic) [compound 832047], the Ki stood at 25.8 nM. As to `O=C(c1ccc(Cl)cc1)C1CCN(C(=O)C2CC2CN2CCC(c3noc4ccsc34)CC2)CC1` (racemic) [compound 831458], the Ki turned out to be 7.43 nM. Take `O=C([C@@H]1C[C@H]1CN1CCC(c2cc3ccccc3s2)CC1)N1CCC(N2CCCC2)CC1` [compound 832715]: the Ki stood at 166 nM.

Regarding `C[C@H]1CC[C@H](NC(=O)[C@@H]2CC[C@H]2CN2CCN(c3noc4ccsc34)CC2)CC1` (racemic) [compound 829996], the Ki is 277 nM. On to `O=C(NCCCn1cnc(Cl)c1Cl)[C@@H]1C[C@H]1CN1CCC(c2noc3ccsc23)CC1` [compound 831198], for which the Ki amounted to 1.76 nM. In the case of `CN1CCCN(C(=O)C2CC2CN2CCC(c3noc4ccsc34)CC2)CC1` (racemic) [compound 829597], the Ki is 226 nM. For the compound `NCCN1CCN(C(=O)[C@@H]2C[C@H]2CN2CCN(c3csc4cc(C(F)(F)F)ccc34)CC2)CC1` [compound 833323], the Ki was 3.46 nM. For `CCC1CCC(NC(=O)C2CC2CN2CCN(c3nn(-c4ccccc4)c4cc(F)ccc34)CC2)CC1` (racemic) [compound 830129], the Ki was 4.16 nM.

With `O=C(NC1CCN(Cc2ccc(F)c(F)c2)CC1)[C@@H]1C[C@H]1CN1CCN(c2csc3cc(C(F)(F)F)ccc23)CC1` [compound 833512], the Ki worked out at 2.17 nM. As to `O=C(C1CC1CN1CCC(c2noc3ccsc23)CC1)N1CCN(CCc2ccccc2)CC1` (racemic) [compound 832057], the Ki worked out at 21.7 nM.

In the case of `CC1(C)COCN1C(=O)[C@@H]1C[C@H]1CN1CCC(c2noc3ccsc23)CC1` [compound 829464], the Ki amounted to 22.4 nM. With `O=C(NCCCN1CCCCC1)[C@@H]1C[C@H]1CN1CCC(c2nn(-c3ccc(F)cc3)c3cc(F)ccc23)CC1` [compound 833157], the Ki was 43.9 nM.

On to `COCCN1CCN(C(=O)C2CC2CN2CCC(c3noc4ccsc34)CC2)CC1` (racemic) [compound 832190], for which the Ki came to 94.6 nM. The value for `CC(C)(C)OC(=O)N1CCCCC1CCNC(=O)[C@@H]1C[C@H]1CN1CCC(c2noc3ccsc23)CC1` (mixture of isomers) [compound 832533] was 4.12 nM; that for `CN1CCN(CCCNC(=O)[C@@H]2C[C@H]2CN2CCC(c3nn(-c4ccccc4)c4ccsc34)CC2)CC1` [A002439263] was 30.6 nM; that for `O=C(C1CC1CN1CCC(c2noc3ccsc23)CC1)N1CCC(Oc2ccc(F)cc2)CC1` (racemic) [compound 829595] was 201 nM. On to `Cc1ccc(S(=O)(=O)n2nc(N3CCN(C[C@@H]4C[C@H]4C(=O)NCCCn4ccnc4)CC3)c3sccc32)cc1` [compound 831267], for which the Ki is 28.3 nM.

Consider `CC(C)N1CCN(C(=O)C2CC2CN2CCC(c3noc4ccsc34)CC2)CC1` (racemic) [compound 832188], for which the Ki came to 10.1 nM.

`Cn1nc(C2CCN(C[C@@H]3C[C@H]3C(=O)NCC3CCNCC3)CC2)c2cccc(C(F)(F)F)c21` [A002440433A]: the Ki was 180 nM.

With `O=C([C@@H]1C[C@H]1CN1CCC(c2noc3cc(C(F)(F)F)ccc23)CC1)N1CCC[C@@H](Cn2ccnc2)C1` [A002287766], the Ki turned out to be 126 nM. In the case of `C[C@H]1CC[C@H](NC(=O)[C@@H]2C[C@H]2CN2CCC(c3nn(-c4ccc(F)cc4)c4cc(C(F)(F)F)ccc34)CC2)CC1` [compound 833698], the Ki was found to be 134 nM. Regarding `CN(CCc1c[nH]c2ccccc12)C(=O)[C@@H]1C[C@H]1CN1CCC(c2noc3ccsc23)CC1` [compound 831278], the Ki was found to be 18.1 nM. On to `O=C(NCCCc1ccccc1)[C@@H]1C[C@H]1CN1CCC(c2nn(-c3ccc(C(F)(F)F)cc3)c3ccccc23)CC1` [compound 831312], for which the Ki was 214 nM. For the compound `O=C(C1CC1CN1CCC(c2noc3ccsc23)CC1)N1CCN(CCCc2ccccc2)CC1` (racemic) [compound 832197], the Ki was 17.1 nM. Consider `O=C(NCCNc1ccccc1)C1CC1CN1CCC(c2noc3ccsc23)CC1` (racemic) [compound 831603], for which the Ki worked out at 20.9 nM. For `Cc1ccc2c(c1)c(C1CCN(C[C@@H]3C[C@H]3C(=O)N[C@H]3CC[C@H](C)CC3)CC1)nn2C` [compound 834059] the value was 2.76 nM. For `COc1ccc(CN2CCN(C(=O)[C@@H]3C[C@H]3CN3CCC(c4noc5ccsc45)CC3)CC2)cc1` [compound 833133], the Ki turned out to be 114 nM.

In the case of `CC1CCC(N2CC(CN3CCN(c4csc5cc(C(F)(F)F)ccc45)CC3)CC2=O)CC1` (racemic) [833953A], the Ki turned out to be 88.8 nM. For `CC1CCC(NC(=O)C2CC2CN2CCN(Cc3ccccc3)CC2)CC1` (racemic) [compound 827202] the value was 177 nM. Take `O=C(NC1CCN(Cc2ccccc2)CC1)C1CC1CN1CCC(c2noc3ccsc23)CC1` (racemic) [compound 831457]: the Ki came out at 1.83 nM. Regarding `COc1cccc2c(C3CCN(C[C@@H]4C[C@H]4C(=O)NC4CC5CC(C4C)C5(C)C)CC3)nn(C)c12` (stereo partly shown) [compound 834171], the Ki came to 65.2 nM. For the compound `CCC1CCC(NC(=O)C2CC2CN2CCN(c3ccc(OC)cc3)CC2C)CC1` (racemic) [compound 827231], the Ki turned out to be 60.6 nM.

`O=C([C@@H]1C[C@H]1CN1CCN(c2csc3cc(C(F)(F)F)ccc23)CC1)N1CCC[C@H](Cn2ccnc2)C1` [compound 833098]: the Ki was 8.84 nM. `CN1CCN(CCCNC(=O)[C@@H]2C[C@H]2CN2CCC(c3nn(C)c4ccsc34)CC2)CC1` [A002438640]: the Ki is 104 nM. Consider `Cn1nc(C2CCN(C[C@@H]3C[C@H]3C(=O)N3CCC[C@@H](Cn4ccnc4)C3)CC2)c2sccc21` [A002437352], for which the Ki came to 1.22 nM. The value for `Cn1nc(C2CCN(C[C@@H]3C[C@H]3C(=O)N3CCC(Cn4ccnc4)CC3)CC2)c2cccc(C(F)(F)F)c21` [A002329095] was 26.5 nM.

`O=C(NCCC1CCCCN1)[C@@H]1C[C@H]1CN1CCN(c2csc3cc(C(F)(F)F)ccc23)CC1` (mixture of isomers) [compound 832503]: the Ki was 11.1 nM. `O=C(NCCCn1ccnc1)[C@@H]1C[C@H]1CN1CCC(c2noc3ccc(C(F)(F)F)cc23)CC1` [A002200837]: the Ki is 0.368 nM. Take `Cn1nc(C2CCN(C[C@@H]3C[C@H]3C(=O)NCCCN3CCCCC3)CC2)c2sccc21` [A002436290]: the Ki came to 520 nM.
